Values of other authors, collected in patent publication US20240182421A1, “SYNTHESIS OF ENDOCHIN-LIKE QUINOLONES” (Oregon Health & Science University, priority 2021, published 2024).
“Also recorded” adds a separate entry of the source.

Experiments:
[1] = tested on: apicomplexan parasites of importance to veterinary medicine
[2] = tested on: Babesia microti
[3] = tested on: Toxoplasma gondii
[4] = tested on: malaria; settings: compared with ELQ-300
[5] = tested on: avian malaria; settings: in vivo

Compound	activity against a range of apicomplexan parasites of importance to veterinary medicine [1]	antiparasitic activity / potency against Babesia microti [2]	antiparasitic activity / potency against Toxoplasma gondii [3]	antimalarial activity in vivo [4]	activity in the avian malaria model [5]
COc1cc2[nH]c(C)c(-c3ccc(Oc4ccc(OC(F)(F)F)cc4)cc3)c(=O)c2cc1Cl [ELQ-300, 6-Chloro-7-methoxy-2-methyl-3-(4-(4-(trifluoromethoxy)phenoxy)phenyl)quinolin-4(1H)-one]	active	–	–	–	–
COc1cc2[nH]c(C)c(-c3ccc(Oc4ccc(OC(F)(F)F)cc4)cc3)c(=O)c2cc1F [ELQ-316, 6-Fluoro-7-methoxy-2-methyl-3-(4-(4-(trifluoromethoxy)phenoxy)phenyl)quinolin-4(1H)-one]	active	greatest potency; also recorded: superior antiparasitic activity	greatest potency; also recorded: superior antiparasitic activity	slightly less antimalarial activity than ELQ-300	–
CCCCCCCc1c(C)[nH]c2cc(OC)ccc2c1=O [endochin]	–	–	–	–	high activity
